The target of experiment [1] is T1, indoleamine 2,3-dioxygenases 2 (IDO2) (Homo sapiens, UniProt Q6ZQW0).
T1 construct: purchased BPS Bioscience, Inc. (San Diego, CA, USA)
T1 sequence (Q6ZQW0 1-407): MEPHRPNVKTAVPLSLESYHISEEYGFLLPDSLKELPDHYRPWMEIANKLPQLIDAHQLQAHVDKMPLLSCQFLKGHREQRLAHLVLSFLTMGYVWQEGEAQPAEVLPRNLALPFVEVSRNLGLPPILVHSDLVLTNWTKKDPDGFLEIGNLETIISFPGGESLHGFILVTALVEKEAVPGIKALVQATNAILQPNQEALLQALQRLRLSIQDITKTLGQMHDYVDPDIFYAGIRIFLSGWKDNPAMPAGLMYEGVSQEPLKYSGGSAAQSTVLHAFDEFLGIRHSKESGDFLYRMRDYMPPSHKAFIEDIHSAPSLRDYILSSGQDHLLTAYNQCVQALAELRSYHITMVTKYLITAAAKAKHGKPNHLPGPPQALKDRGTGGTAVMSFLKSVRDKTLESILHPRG
Put plainly: Universal IDO1/IDO2/TDO Inhibitor Screening Assay Kit, IDO2. The format is biochemical. The conditions noted are these: read-out: Inhibition (%) IDO2. Here is the method: (§1) This colorimetric assay is based on the measurement of the ability of IDO1, IDO2 and TDO to convert L-tryptophan into N-formylkynurenine (NFK). The experiments were performed according to the manufacturer’s guidelines. The final concentration of the compounds and extracts in the reaction mixture was 100 µg/mL. The amount of NFK was measured spectrophotometrically at 320 nm using an Epoch BioTek microplate reader (BioTek Instruments, Inc., Winooski, VT, USA). The samples were run in triplicate and the results were expressed as mean ± SEM.

The target of experiment [2] is T2, tryptophan 2,3-dioxygenase (TDO) (Homo sapiens, UniProt P48775).
T2 construct: purchased BPS Bioscience, Inc. (San Diego, CA, USA)
The experiment can be described thus: Universal IDO1/IDO2/TDO Inhibitor Screening Assay Kit, TDO. It is filed as biochemical. The conditions noted are these: read-out: Inhibition (%) TDO. Here is the method: as §1

Some results are limits rather than exact numbers.

T2 sequence (P48775 whole entry, species assumed): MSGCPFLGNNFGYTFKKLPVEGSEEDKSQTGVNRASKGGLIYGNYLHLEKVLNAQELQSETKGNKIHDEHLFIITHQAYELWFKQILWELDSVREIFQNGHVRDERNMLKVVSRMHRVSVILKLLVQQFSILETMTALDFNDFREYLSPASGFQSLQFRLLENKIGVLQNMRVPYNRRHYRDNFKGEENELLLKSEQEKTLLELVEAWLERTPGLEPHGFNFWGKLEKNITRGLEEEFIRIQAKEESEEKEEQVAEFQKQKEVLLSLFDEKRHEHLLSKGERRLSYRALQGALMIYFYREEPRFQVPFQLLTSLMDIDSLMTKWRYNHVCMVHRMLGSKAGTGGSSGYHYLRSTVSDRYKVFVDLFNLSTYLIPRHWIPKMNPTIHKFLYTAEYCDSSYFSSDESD

Regarding `NS(=O)(=O)NCCNc1nonc1C(=NO)Nc1ccc(F)c(Br)c1` [epacadostat, reference compound], the inhibition at 100 µg/mL in experiment [1] and in experiment [2] was less than 10% each time.

Values taken from paper PMC8704315, “Lichen-Derived Compounds and Extracts as Biologically Active Substances with Anticancer and Neuroprotective Properties” (Pharmaceuticals, 2021).
